Measurements reported in article PMC6199744, “Development of Chemical Proteomics for the Folateome and Analysis of the Kinetoplastid Folateome” (ACS Infectious Diseases, 2018).
Like-named read-outs stand apart in the source and are kept apart here.

System: T. brucei lysate proteins
Format: binding, Trypanosoma brucei
Conditions: vehicle control = 1

Question: Which “fold change vs vehicle control” value (protein TB427.04.760 GAMMA-ADAPTIN 1, PUTATIVE) does the source give for `NCCCNc1ccc(C(=O)NC(CCC(=O)O)C(=O)O)cc1` (centres unmarked) [compound 7] here?
Answer: 0.84

Question: What about the fold change (protein TB427.05.1210 SHORT-CHAIN DEHYDROGENASE, PUTATIVE) of the same molecule?
Answer: 0.95

Question: And the “fold change vs vehicle control” value (protein TB427.05.1320 HY[…], CONSERVED)?
Answer: 0.92

Question: What about the fold change (protein TB427.05.3030 INTR[…] PROTEIN IFT122, PUTATIVE) of the same molecule?
Answer: 0.96

Question: What about the “fold change vs vehicle control” value (protein TB427.05.4560 GUANINE DEAMINASE, PUTATIVE) of the same molecule?
Answer: 0.91

Question: What about the “fold change vs vehicle control” value (protein TB427.06.1070 HY[…], CONSERVED) of the same molecule?
Answer: 1.17

Question: And the fold change (protein TB427.06.2550 RNA-BINDING PROTEIN, PUTATIVE)?
Answer: 1.51

Question: What about the fold change (protein TB427.06.3500 ENDOSOMAL T[…] RME-8, PUTATIVE) of the same molecule?
Answer: 0.89

Question: What about the fold change (protein TB427.06.3630 SPHINGOSINE 1-PHOSPHATE LYASE, PUTATIVE) of the same molecule?
Answer: 0.95

Question: And the fold change (protein TB427.06.3650 ADP-RI[…], PUTATIVE)?
Answer: 0.97

Question: And the fold change (protein TB427.06.3670 PAR[…] COMPONENT, PUTATIVE)?
Answer: 1

Question: And the fold change (protein TB427.06.700 ALANYL-TRNA SYNTHETASE, PUTATIVE)?
Answer: 0.84

Question: And the “fold change vs vehicle control” value (protein TB427.07.1300 PROTEIN DISULFIDE ISOMERASE, PUTATIVE)?
Answer: 1.3

Question: And the “fold change vs vehicle control” value (protein TB427.07.3160 DYNEIN HEAVY CHAIN, CYTOSOLIC, PUTATIVE)?
Answer: 0.87

Question: And the fold change (protein TB427.07.3980 IMMU[…], PUTATIVE)?
Answer: 0.91

Question: And the “fold change vs vehicle control” value (protein TB427.07.4170 FATTY ACID ELONGASE, PUTATIVE)?
Answer: 0.97

Question: What about the fold change (protein TB427.07.4180 FATTY ACID ELONGASE, PUTATIVE) of the same molecule?
Answer: 1.1

Question: And the fold change (protein TB427.07.4970 GLUTAMINE SYNTHETASE, PUTATIVE)?
Answer: 0.98

Question: What about the “fold change vs vehicle control” value (protein TB427.07.7500 THYMINE-7-HYDROXYLASE, PUTATIVE) of the same molecule?
Answer: 0.95

Question: And the “fold change vs vehicle control” value (protein TB427.08.1210 HY[…], CONSERVED)?
Answer: 1.49

Question: And the fold change (protein TB427.08.2060 HY[…], CONSERVED)?
Answer: 0.91

Question: And the fold change (protein TB427.08.2080 HY[…], CONSERVED)?
Answer: 0.91

Question: What about the fold change (protein TB427.08.3150 T-COMPLEX PROTEIN 1, GAMMA SUBUNIT, PUTATIVE) of the same molecule?
Answer: 0.97

Question: And the fold change (protein TB427.08.4210 HY[…], CONSERVED)?
Answer: 0.91

Question: And the fold change (protein TB427.08.5760 HY[…], CONSERVED)?
Answer: 0.99

Question: What about the fold change (protein TB427.10.10350 PROTEIN KINASE, PUTATIVE) of the same molecule?
Answer: 0.62

Question: And the fold change (protein TB427.10.10360 MICROTUBULE-[…], PUTATIVE)?
Answer: 0.85

Question: What about the fold change (protein TB427.10.1060 T-COMPLEX PROTEIN 1, DELTA SUBUNIT, PUTATIVE) of the same molecule?
Answer: 0.96

Question: What about the “fold change vs vehicle control” value (protein TB427.10.10610 PROTEIN TYROSINE PHOSPHATASE, PUTATIVE) of the same molecule?
Answer: 1.47

Question: And the fold change (protein TB427.10.1070 CELL DIVISION PROTEIN KINASE 2 HOMOLOG 1 (CRK1))?
Answer: 0.93

Question: What about the “fold change vs vehicle control” value (protein TB427.10.11760 PUMILIO/PUF RNA BINDING PROTEIN 6) of the same molecule?
Answer: 0.99

Question: And the fold change (protein TB427.10.12710 HEAT SHOCK PROTEIN, PUTATIVE)?
Answer: 0.77

Question: What about the “fold change vs vehicle control” value (protein TB427.10.12820 HY[…], CONSERVED) of the same molecule?
Answer: 0.93

Question: What about the “fold change vs vehicle control” value (protein TB427.10.12890 BI[…]-TRNA SYNTHETASE, PUTATIVE) of the same molecule?
Answer: 0.98

Question: What about the fold change (protein TB427.10.14140 PYRUVATE KINASE 1) of the same molecule?
Answer: 0.86

Question: What about the “fold change vs vehicle control” value (protein TB427.10.14180 PROTEIN TRANSPORT PROTEIN SEC13, PUTATIVE) of the same molecule?
Answer: 0.89

Question: And the “fold change vs vehicle control” value (protein TB427.10.14470 INTR[…] PROTEIN IFT140, PUTATIVE)?
Answer: 1.33

Question: And the fold change (protein TB427.10.1450 HY[…], CONSERVED)?
Answer: 0.88

Question: And the fold change (protein TB427.10.14860 HY[…], CONSERVED)?
Answer: 0.95

Question: And the “fold change vs vehicle control” value (protein TB427.10.14950 RNA BINDING PROTEIN, PUTATIVE)?
Answer: 1.37

Question: What about the fold change (protein TB427.10.2350 PYRUVATE DEH[…] E3 BINDING PROTEIN, PUTATIVE) of the same molecule?
Answer: 0.93

Question: What about the fold change (protein TB427.10.2440 METACASPASE MCA4) of the same molecule?
Answer: 0.83

Question: What about the “fold change vs vehicle control” value (protein TB427.10.3470 HY[…], CONSERVED) of the same molecule?
Answer: 1.2

Question: And the fold change (protein TB427.10.4610 […]-MANNOSE SYNTHASE, PUTATIVE)?
Answer: 0.98

Question: What about the “fold change vs vehicle control” value (protein TB427.10.5810 HY[…], CONSERVED) of the same molecule?
Answer: 0.88

Question: And the fold change (protein TB427.10.5840 T[…] 1-BETA, PUTATIVE)?
Answer: 0.92

Question: What about the fold change (protein TB427.10.5850 HY[…], CONSERVED) of the same molecule?
Answer: 0.88

Question: What about the fold change (protein TB427.10.6150 […]/BEIGE PROTEIN, PUTATIVE) of the same molecule?
Answer: 0.99

Question: What about the fold change (protein TB427.10.6310 MAJOR VAULT PROTEIN, PUTATIVE) of the same molecule?
Answer: 0.93

Question: What about the fold change (protein TB427.10.730 ATP SYNTHASE, PUTATIVE) of the same molecule?
Answer: 0.84

Question: What about the “fold change vs vehicle control” value (protein TB427.10.7410 SUCCINYL-COA LIGASE GDP-FORMING] BETA-CHAIN, PUTATIVE) of the same molecule?
Answer: 0.94

Question: And the fold change (protein TB427.10.8190 T-COMPLEX PROTEIN 1, THETA SUBUNIT, PUTATIVE)?
Answer: 0.94

Question: And the “fold change vs vehicle control” value (protein TB427.10.8230 PROTEIN DISULFIDE ISOMERASE)?
Answer: 1.25

Question: What about the fold change (protein TB427.10.8720 HY[…], CONSERVED) of the same molecule?
Answer: 1

Question: What about the “fold change vs vehicle control” value (protein TB427.10.8850 HY[…], CONSERVED) of the same molecule?
Answer: 0.93

Question: And the fold change (protein TB427.10.9890 HY[…], CONSERVED)?
Answer: 0.65

Question: And the fold change (protein TB927.10.12960 RAS-RELATED PROTEIN RAB-5)?
Answer: 0.98

Question: And the fold change (protein TB927.10.1550 […]-ATP-ASE SUBUNIT 5)?
Answer: 0.9

Question: And the fold change (protein TB927.1.2330 BETA TUBULIN)?
Answer: 0.99

Question: What about the “fold change vs vehicle control” value (protein TB927.10.2890 ENOLASE) of the same molecule?
Answer: 0.91

Question: What about the fold change (protein TB927.10.3660 ASPARTATE AMINOTRANSFERASE) of the same molecule?
Answer: 0.96

Question: What about the fold change (protein TB927.10.4180 TFIIF-[…] PHOSPHATASE, PUTATIVE) of the same molecule?
Answer: 0.87

Question: What about the fold change (protein TB927.10.5500 HY[…], CONSERVED) of the same molecule?
Answer: 0.99

Question: What about the fold change (protein TB927.10.6050 CLATHRIN HEAVY CHAIN) of the same molecule?
Answer: 0.87

Question: And the “fold change vs vehicle control” value (protein TB927.10.8030 HY[…], CONSERVED)?
Answer: 1

Question: And the “fold change vs vehicle control” value (protein TB927.10.8940 HY[…], CONSERVED)?
Answer: 0.97

Question: And the fold change (protein TB927.2.100 RETRO[…] SPOT (RHS) PROTEIN, PUTATIVE,RETRO[…] SPOT PROTEIN 1 (RHS1), PUTATIVE)?
Answer: 0.9

Question: What about the “fold change vs vehicle control” value (protein TB927.2.2440 […]-ATPASE SUBUNIT 6) of the same molecule?
Answer: 1.85

Question: What about the fold change (protein TB927.2.3800 MRNA […], PUTATIVE) of the same molecule?
Answer: 0.77

Question: And the fold change (protein TB927.3.1240 PROTEIN PHOSPHATASE 2A, PUTATIVE)?
Answer: 0.77

Question: What about the “fold change vs vehicle control” value (protein TB927.3.2960 INOSINE-ADENOSINE-GUANOSINE-[…]) of the same molecule?
Answer: 0.82

Question: What about the fold change (protein TB927.3.3190 SERINE/THREONINE-PROTEIN KINASE, PUTATIVE) of the same molecule?
Answer: 0.89

Question: What about the “fold change vs vehicle control” value (protein TB927.3.3450 ADP-RI[…]-LIKE PROTEIN 3A, PUTATIVE) of the same molecule?
Answer: 0.76

Question: What about the fold change (protein TB927.3.3780 TRYPAREDOXIN) of the same molecule?
Answer: 0.9

Question: And the “fold change vs vehicle control” value (protein TB927.3.5120 HY[…], CONSERVED (Ankyrin repeats (3 copies), putative))?
Answer: 1.2

Question: And the “fold change vs vehicle control” value (protein TB927.3.740 HY[…], CONSERVED)?
Answer: 0.97

Question: What about the fold change (protein TB927.4.3590 T[…] 1-BETA, PUTATIVE) of the same molecule?
Answer: 0.77

Question: And the fold change (protein TB927.5.3220 SIGNAL PEPTIDASE TYPE I, PUTATIVE)?
Answer: 0.9

Question: And the “fold change vs vehicle control” value (protein TB927.5.4440 DYNEIN LIGHT CHAIN, PUTATIVE)?
Answer: 1.1

Question: What about the fold change (protein TB927.6.2200 HY[…], CONSERVED) of the same molecule?
Answer: 0.97

Question: What about the fold change (protein TB927.6.4460 S-ADENOSYLMETHIONINE DECARBOXYLASE) of the same molecule?
Answer: 0.97

Question: What about the “fold change vs vehicle control” value (protein TB927.6.560 CYSTEINE PEPTIDASE C (CPC)) of the same molecule?
Answer: 1

Question: And the “fold change vs vehicle control” value (protein TB927.7.4470 HY[…], CONSERVED)?
Answer: 1.22

Question: And the fold change (protein TB927.7.6320 HY[…], CONSERVED)?
Answer: 0.96

Question: And the “fold change vs vehicle control” value (protein TB927.7.7430 ATP SYNTHASE ALPHA CHAIN, MIT[…])?
Answer: 0.93

Question: What about the fold change (protein TB927.8.1990 PEROXIDOXIN) of the same molecule?
Answer: 0.67

Question: What about the “fold change vs vehicle control” value (protein TB927.8.4810 PROHIBITIN 1) of the same molecule?
Answer: 0.99

Question: And the fold change (protein TB927.8.890 SMALL GTP-BINDING PROTEIN RAB1, PUTATIVE)?
Answer: 0.93

Question: And the fold change (protein TB-292 MEMBRANE ASSOCIATED PROTEIN)?
Answer: 0.93
